According to US20200155566A1, “THERAPEUTIC COMBINATION OF A THIRD GENERATION EGFR TYROSINE KINASE INHIBITOR AND A CYCLIN D KINASE INHIBITOR” (Novartis AG, priority 2017, published 2020):

Legend:
[1] = test system: Epidermal Growth Factor Receptor (EGFR); settings: L858R, exl9del, T790M versus WT; cited from earlier work
[2] = test system: EGFR-mutant NSCLC; settings: 100 mg daily versus 150 mg daily, previous study; cited from earlier work
[3] = test system: phospho-EGFR (EGFR Y1068); assay: Western blot of phospho-EGFR after 72 hours of treatment; type: cell-based; settings: PC-14, NCI-H1975, HCC827, HCC4006, immunoblot
Description: NCI-H1975 (having mutations L858R, T790M), PC-14 (having mutations ex 19 del or exon 19 deletion), HCC827 (having mutation exl9del) and HCC4006 (having mutation exl9del) cells were cultured in RPMI-1640 growth medium (ATCC, catalog number 20-2001), supplemented with 10% fetal bovine serum (GIBCO, catalog number F4135) at 37° C. in a humidified 5% CO2 incubator. For the mechanistic studies, cells were seeded into tissue culture treated 6-well plates (Corning 3506) at a densities of 400k, 400k, 100K and 50k cells per well for HCC827, NCI-H1975, HCC4006 and PC-9 (having mutation exon 19 deletion) respectively, and allowed to attach overnight. […] After 72 hours of treatment, cells were lysed in 100 μl per well RIPA buffer (Sigma R0278) containing protease inhibitor cocktail (Sigma P8340), phosphatase inhibitor cocktail 2(Sigma P5726) and phosphatase inhibitor cocktail 3 (Sigma P0044). Cells were lysed on ice for 10 minutes, with scraping using a Cell Lifter (Corning 3008). Lysates were then micro-centrifuged at 14000rpm in an Eppendorf 5417R micro-centrifuge at 4° C.

[4] = test system: EGFR mutant NSCLC cell lines (PC9, HCC827, HCC4006, MGH707); assay: Long-term viability study (confluence by incucyte zoom, four weeks); type: cell-based
Description: PC9 (3,000/well), HCC827 (10,000/well), HCC4006 (5000/well), and MGH707 (5000/well) cells were plated into 96-well plates and the following day treated with EGF816 (300nM) either alone or in combination with LEE011 (1000 nM) for four weeks. Drug was refreshed twice per week. Cell confluence was used as a surrogate for cell number and was measured by an incucyte zoom (Essen Biosciences) at the initiation of treatment and then twice (2x) per week thereafter.

[5] = test system: NCI-H1975 tumors (EGFR L858R, T790M); assay: In vivo efficacy study, NCI-H1975 xenograft tumor volume; parameters: species or system mouse; settings: Compound A 10 or 30 mg/kg p.o. qd, Compound B 80 mg/kg free base p.o. qd
Description: The tumor cells were cultured in tissue culture flasks in a humidified incubator at 37° C., in an atmosphere of 5% CO2 and 95% air.

[6] = test system: EGFR mutant (L858R, exl9del and T790M) cancer models; settings: cited from earlier work
[7] = test system: advanced non-small cell lung cancer (NSCLC) harboring T790M; settings: patients with advanced NSCLC harboring T790M; cited from earlier work
[8] = single agent ribociclib, 3 weeks on/1 week off; cited from earlier work
[9] = test system: CYP3A4/5; settings: cited from earlier work
[10] = test system: phospho-Rb (Rb S807/811); assay: Western blot of phospho-Rb after 72 hours of treatment; type: cell-based; settings: PC-14, NCI-H1975, HCC827, HCC4006, immunoblot
Description: Several EGFR mutant NSCLC cell lines were treated for 72 hours with the EGF816 and LEE011 combination at different concentrations as follows. NCI-H1975 (having mutations L858R, T790M), PC-14 (having mutations ex 19 del or exon 19 deletion), HCC827 (having mutation exl9del) and HCC4006 (having mutation exl9del) cells were cultured in RPMI-1640 growth medium (ATCC, catalog number 20-2001), supplemented with 10% fetal bovine serum (GIBCO, catalog number F4135) at 37° C. in a humidified 5% CO2 incubator. For the mechanistic studies, cells were seeded into tissue culture treated 6-well plates (Corning 3506) at a densities of 400k, 400k, 100K and 50k cells per well for HCC827, NCI-H1975, HCC4006 and PC-9 (having mutation exon 19 deletion) respectively, and allowed to attach overnight. The cells were then exposed to a 3×3 matrix combination treatment of EGF816 and LEE011, at concentrations of 0, 0.12, 0.333 μM EGF816 vs. 0, 0.312, 2.5 μM LEE011. […]
Lysate' total protein content was determined by BCA assay (Pierce 23227), following the manufacturer's instructions, and samples were prepared for a western blot using Invitrogen LDS Sample Buffer (NP0007)) containing 200 mM DTT, boiled at 95° C. for 10 minutes, micro-centrifuged and 20 μg total protein loaded per well. […]

SMILES | selectivity for mutant EGFR over wild type EGFR [1] | rates of rash and diarrhoea [2] | EGFR phosphorylation (EGFR Y1068) [3] | regrowth of cells (confluence as surrogate for cell number) ([4]; EGF816 300nM alone or with LEE011 1000 nM) | apoptosis and cell cycle arrest ([4]; EGF816 300nM, PC9, HCC827, HCC4006, MGH707) | tumor volume changes over time [5] | tolerability, body weight ([6]; efficacious doses, xenograft models) | anti-tumor efficacy in xenograft models ([6]; several xenograft models) | antitumor activity in patients [7] | MTD [8] | CYP3A4/5 inhibition [9] | Rb phosphorylation (Rb S807/811) [10]
Cc1cc(C(=O)Nc2nc3cccc(Cl)c3n2[C@@H]2CCCCN(C(=O)/C=C/CN(C)C)C2)ccn1 [EGF816, (R,E)-N-(7-chloro-1-(1-(4-(dimethylamino)but-2-enoyl)azepan-3-yl)-1H-benzo[d]imidazol-2-yl)-2-methylisonicotinamide] | selectively inhibits activating and acquired resistance mutants (L858R, exl9del and T790M), while sparing wild type (WT) EGFR | lower rates of rash and diarrhoea were observed at 100 mg daily | inhibited in a dose dependent manner across all cell lines | begin to slowly regrow | varying degrees of apoptosis and cell cycle arrest | significant tumor regressions, which increased at higher doses | well tolerated with no body weight loss observed at efficacious doses | Dose-dependent anti-tumor efficacy | durable antitumor activity |  |  | 
CN(C)C(=O)c1cc2cnc(Nc3ccc(N4CCNCC4)cn3)nc2n1C1CCCC1 [LEE011, 7-cyclopentyl-2-(5-piperazin-1-yl-pyridin-2-ylamino)-7H-pyrrolo[2,3-d]pyrimidine-6-carboxylic acid dimethylamide] |  |  |  |  |  | no single agent activity |  |  |  | 900 mg qd | inhibitor of CYP3A4/5 | inhibited by LEE011 single agent in 3 out of 4 cell lines
